Measurements: US9738668B2

Legend:
[1] = Solubility in solvents during LC method development; format: physicochemical
Description: During the development of a detection method for analytes 4, 8 and 15, multiple solvents were tested to find the optimal mobile phase. […] Acetonitrile was selected for better peak shape and compatibility with serum/brain protein precipitation. Compounds 8 and 15 were chosen as IS, because of their structural similarity. Selected reaction monitoring (SRM) acquisitions were used for sensitivity and extended dynamic range. The cone voltage and collision energy were optimized for 4, 8 and 15 and the IS by continuously infusing a mixture of the two. The optimum cone voltage was 30V.

[2] = test system: SK-N-SH cells; assay: ATP levels in Aβ-treated cells; format: cell-based; conditions: for ATP levels: 5 μM Aβ1-42 plus 1 μM inhibitor; for ATP levels, inhibitor alone: inhibitor without Aβ
Description: Forty-eight hour later, ATP levels (μmol mg^−1 protein) were measured in cell lysates.
To determine the effect of ABAD inhibitors on Aβ-induced impairment in energy metabolism, ATP levels were measured. […] ATP levels were measured in the cell lysates. […] Therefore, ABAD inhibitors can block mitochondrial dysfunction mediated by Aβ.

[3] = test system: brain mitochondria; assay: Mitochondria swelling assay in response to Ca2+; design: species or system mice; conditions: for calcium-mediated mitochondrial swelling: with calcium
Description: Brain from mice without white matter was used for mitochondrial isolation. Brain was homogenized in 9 ml of ice-cold EB buffer (1 mmol EDTA, 1-6 mg/ml BSA) using a Dounce homogenizer until no particles could be seen. Homogenates were centrifuged at 1300×g for 5 minutes. Supernatant from this fraction was carefully laid on top of a 15% PERCOLL solution (10 ml) and then centrifuged at 16000 RPM for 10 minutes. The pellet was carefully mixed with 9 ml of mitochondrial buffer (4.098% D-mannitol, 2.56% sucrose, 0.034% K2HPO4, pH 7.3-7.4) and 200 μl of 1% digitonin. After 5 minutes incubation on ice, the mixture was centrifuged at 8000 RPM for 10 minutes. Mitochondrial pellet was washed once with mitochondrial buffer. Subsequently, the mitochondrial pellet was resuspended in 100 μl of mitochondrial buffer and was used for further experiments.
A proper amount of mitochondria was resuspended into 1 ml swelling assay buffer (150 mM KCl, 2 mM KH2PO4, 10 mM HEPES, pH 7.4) and energized by 1 mM glutamate and 1 mM malate. Calcium at varying concentrations was added into the assay buffer to trigger mitochondrial swelling. Mitochondrial permeability transition was determined by studying the rate of change in absorbance at 540 nm via a spectrophotometer.
Given that the Compounds 4, 8 and 15 could inhibit ABAD activity, it was determined whether these same compounds could decrease mitochondrial permeability transition pore (mPTP) formation.

[4] = test system: cells; assay: Trypan blue dye exclusion (cell viability and toxicity); format: cell-based; conditions: 1, 10, 50, 100 μM, 48 to 66 hours
Description: The trypan blue dye exclusion is commonly used for measuring cell viability and toxicity. 48-66 hours after treatment of ABAD compounds, the trypan blue exclusion experiments were performed. In brief, cells plated in 96-well plates were washed with the balanced salt solution (Hanks-Balanced Salts/HBSS) once, then replaced with HBSS including trypan blue solution to the final concentration of 0.2% (Sigma-Aldrich, St. Louis, Mo.), and mixed thoroughly. After standing at room temperature for 5 minutes, the cells were washed with HESS again and then maintained in the well with HBSS. Both the stained and unstained cells in each well were counted under a microscope (Nikon E400). The calculated percentage of unstained cells represented the percentage of viable cells. Cell viability (%)=total viable cells (unstained)/total cells (stained and unstained)×100.
The effect of ABAD inhibitors on cell viability and toxicity was assessed using MTT reduction assay and trypan blue exclusion, which are widely used to assess cell survival and toxicity and to screen for drugs toxicity. Cells were treated with a range of concentrations of ABAD compound (4 and 8) at 1, 10, 50, 100 μM for 48 to 66 hours.

[5] = test system: ABAD; format: biochemical
Description: Before the assay, all the assay components except SAAC were pre-incubated for 5 minutes, and the reaction started with the addition of SAAC into the reaction mix. The reaction was carried out for a total 6 minutes at room temperature under steady-state conditions, and the decrease of NADH absorbance at 340 nm was determined every 10 seconds. Kinetic data were analyzed by PRISM (Scitech, San Diego, Calif.) to determine IC50 values and Ki. One unit of enzyme activity was defined as that which converted 1.0 μmol of substrate to product per minute.

Compound | solubility in methanol or acetonitrile [1] | solubility in water [1] | ATP levels [2] | ATP levels, inhibitor alone [2] | calcium-mediated mitochondrial swelling [3] | mitochondrial swelling without calcium [3] | percentage of trypan blue-positive cells [4] | inhibitory effect on SAAC reduction by ABAD [5]
COc1ccc2nc(N[C@@H](c3ccc(O)cc3)P(=O)(OC)OC)sc2c1 (racemic) [Compound 8, Dimethyl ((4-hydroxyphenyl)((6-methoxybenzo[d]thiazol-2-yl)amino)methyl)phosphonate] | dissolved readily | dissolved partially | rescued ATP levels | comparable to cells treated with vehicle alone | antagonized calcium-mediated mitochondrial swelling | did not affect mitochondrial swelling | did not exhibit decreased MTT reduction, increased percentage of trypan blue-positive cells | 
COC(=O)c1cc([C@H](Nc2nc3ccc(OC)cc3s2)P(=O)(OC)OC)ccc1O [Compound 4, Methyl 5-((dimethoxyphosphoryl)((6-methoxybenzo[d]thiazol-2-yl)amino)methyl)-2-hydroxybenzoate] | dissolved readily | dissolved partially | rescued ATP levels | comparable to cells treated with vehicle alone | antagonized calcium-mediated mitochondrial swelling | did not affect mitochondrial swelling | did not exhibit decreased MTT reduction, increased percentage of trypan blue-positive cells | modest inhibitory effect
